The target of assay [1] is CDK2/Cyclin E1 (Homo sapiens, UniProt P24941). Put plainly: CDK2/Cyclin E1 Biochemical Assay (TR-FRET), 0.060 mM ATP. As to conditions: 0.15 μM Rb (Ser780)-biotin substrate, pH7.0, 60 min preincubation, 120 min reaction, room temperature. Summed up: (§1)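 Phosphorylation of a biotin-tagged Rb Ser780 peptide (0.15 μM) is measured by time-resolved FRET between a europium-labelled phospho-specific antibody and streptavidin-XL665. Compound (0–10 μM) sits with enzyme 60 min first; the kinase reaction then proceeds 120 min at room temperature, pH 7.0.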
A general note: TR-FRET usually uses a lanthanide donor and a delayed reading to cut background.

Assay [2] has as its target CDK1/Cyclin B1 (Homo sapiens, UniProt P06493). Put plainly: CDK1/Cyclin B1 Biochemical Assay (TR-FRET), 0.015 mM ATP. The conditions noted are these: 0.15 μM Rb (Ser780)-biotin substrate, pH7.0, 60 min preincubation, 120 min reaction, room temperature. Summed up:
as §1

SMILES strings stand for the structures.

Chain of CDK1/Cyclin B1 (P06493 whole entry): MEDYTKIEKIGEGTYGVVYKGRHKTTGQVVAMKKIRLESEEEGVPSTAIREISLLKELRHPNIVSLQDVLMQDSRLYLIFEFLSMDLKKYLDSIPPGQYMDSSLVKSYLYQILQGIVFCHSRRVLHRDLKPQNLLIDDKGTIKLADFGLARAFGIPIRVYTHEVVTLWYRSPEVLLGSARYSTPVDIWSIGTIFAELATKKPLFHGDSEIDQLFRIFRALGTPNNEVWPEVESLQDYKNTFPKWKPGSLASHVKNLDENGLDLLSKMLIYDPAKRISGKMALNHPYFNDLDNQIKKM
Chain of CDK1/Cyclin B1 (P14635 whole entry partner): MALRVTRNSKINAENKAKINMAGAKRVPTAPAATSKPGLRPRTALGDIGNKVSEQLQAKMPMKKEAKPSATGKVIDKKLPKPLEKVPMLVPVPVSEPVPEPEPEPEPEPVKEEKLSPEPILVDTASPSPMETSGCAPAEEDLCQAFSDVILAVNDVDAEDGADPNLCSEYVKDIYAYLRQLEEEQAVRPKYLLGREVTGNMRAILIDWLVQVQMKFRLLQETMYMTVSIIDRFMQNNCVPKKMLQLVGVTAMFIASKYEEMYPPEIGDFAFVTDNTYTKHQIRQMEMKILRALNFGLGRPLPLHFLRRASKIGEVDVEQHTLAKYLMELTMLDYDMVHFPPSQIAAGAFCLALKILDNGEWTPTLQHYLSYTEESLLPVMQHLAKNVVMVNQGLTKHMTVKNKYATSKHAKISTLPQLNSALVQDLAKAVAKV

Usually IC50 stands for the concentration needed to halve the response being measured. Higher therefore signals weaker potency in that assay. Consider `COCC(C)(C)NC(=O)O[C@H]1CC[C@@H](c2cc(Nc3ccc4c(c3F)CS(=O)(=O)N4C)n[nH]2)C1` (relative stereo) [Example 377, cis-3-(3-((4-fluoro-1-methyl-2,2-dioxido-1,3-dihydrobenzo[c]isothiazol-5-yl)amino)-1H-pyrazol-5-yl)cyclopentyl(1-methoxy-2-methylpropan-2-yl)carbamate], for which the IC50 came out at 1.1 nM in assay [1] and 45 nM in assay [2].

As to `CC1(NC(=O)O[C@H]2CC[C@@H](c3cc(Nc4ccc5c(c4)NS(=O)(=O)C5)n[nH]3)C2)CC1` (relative stereo) [Example 307, cis-3-(3-((2,2-dioxido-1,3-dihydrobenzo[c]isothiazol-6-yl)amino)-1H-pyrazol-5-yl)cyclopentyl(1-methylcyclopropyl)carbamate], the IC50 in assay [1] was 2.5 nM; in assay [2], 18 nM.

On to `CC[C@H](C)NC(=O)O[C@H]1CC[C@@H](c2cc(Nc3ccc4c(c3F)CN(C3CC3)S4(=O)=O)n[nH]2)C1` (single isomer, unassigned) [Example 117b], for which the IC50 in assay [1] was 1.8 nM; in assay [2], 91 nM.

For `CN1c2ccc(Nc3cc([C@@H]4CC[C@H](OC(=O)NC5(C)CCC5)C4)[nH]n3)cc2CS1(=O)=O` (relative stereo) [Example 233, cis-3-(3-((1-methyl-2,2-dioxido-1,3-dihydrobenzo[c]isothiazol-5-yl)amino)-1H-pyrazol-5-yl)cyclopentyl(1-methylcyclobutyl)carbamate], the results for the IC50 in assay [1] and in assay [2] were 1.3 nM and 10 nM, respectively.

Take `CC(C)NC(=O)O[C@H]1CC[C@@H](c2cc(Nc3ccc4c(c3F)CN(CCCN(C)C)S4(=O)=O)n[nH]2)C1` (relative stereo) [Example 73, cis-3-(3-((2-(3-(dimethylamino)propyl)-4-fluoro-1,1-dioxido-2,3-dihydrobenzo[d]isothiazol-5-yl)amino)-1H-pyrazol-5-yl)cyclopentyl isopropylcarbamate]: the IC50 came to 7.9 nM in assay [1] and 583 nM in assay [2].

Take `CC[C@H](C)NC(=O)O[C@H]1CC[C@@H](c2cc(Nc3ccc4c(c3F)C(C)(C)NS4(=O)=O)n[nH]2)C1` (relative stereo) [Example 57, cis-3-(3-((4-fluoro-3,3-dimethyl-1,1-dioxido-2,3-dihydrobenzo[d]isothiazol-5-yl)amino)-1H-pyrazol-5-yl)cyclopentyl((S)-sec-butyl)carbamate]: the IC50 in assay [1] came to 48 nM; in assay [2], 1080 nM.

For `CC[C@H](C)NC(=O)O[C@H]1CC[C@@H](c2cc(Nc3ccc4c(c3F)CS(=O)(=O)N4CCO)n[nH]2)C1` (relative stereo) [Example 273, cis-3-(3-((4-fluoro-1-(2-hydroxyethyl)-2,2-dioxido-1,3-dihydrobenzo[c]isothiazol-5-yl)amino)-1H-pyrazol-5-yl)cyclopentyl((S)-sec-butyl)carbamate], the IC50 in assay [1] was found to be 2.5 nM; in assay [2], 43 nM.

Take `CC(C)NC(=O)O[C@H]1CC[C@@H](c2cc(Nc3ccc4c(c3)CCS(=O)(=O)N4C)n[nH]2)C1` (relative stereo) [Example 250, cis-3-(3-((1-methyl-2,2-dioxido-3,4-dihydro-1H-benzo[c][1,2]thiazin-6-yl)amino)-1H-pyrazol-5-yl)cyclopentyl isopropylcarbamate]: the IC50 came to 2.1 nM in assay [1] and 30 nM in assay [2].

As to `COCCN1Cc2c(ccc(Nc3cc([C@@H]4CC[C@H](OC(=O)NC(C)C)C4)[nH]n3)c2F)S1(=O)=O` (relative stereo) [Example 64, cis-3-(3-((4-fluoro-2-(2-methoxyethyl)-1,1-dioxido-2,3-dihydrobenzo[d]isothiazol-5-yl)amino)-1H-pyrazol-5-yl)cyclopentyl isopropylcarbamate], the concentration for half-maximal inhibition (IC50) in assay [1] amounted to 4.6 nM; in assay [2] it was 214 nM.

As for `CC(C)NC(=O)O[C@H]1CC[C@@H](c2cc(Nc3cc4c(cc3F)S(=O)(=O)NC4)n[nH]2)C1` (single isomer, unassigned) [Example 12a, cis-3-(3-((6-fluoro-1,1-dioxido-2,3-dihydrobenzo[d]isothiazol-5-yl)amino)-1H-pyrazol-5-yl)cyclopentyl isopropylcarbamate], the IC50 in assay [1] was found to be 10 nM; in assay [2], 921 nM.

Take `CN1c2ccc(Nc3cc([C@@H]4CC[C@H](OC(=O)NC(C)(C)CO)C4)[nH]n3)c(F)c2CS1(=O)=O` (single isomer, unassigned) [Example 327b, cis-3-(3-((4-fluoro-1-methyl-2,2-dioxido-1,3-dihydrobenzo[c]isothiazol-5-yl)amino)-1H-pyrazol-5-yl)cyclopentyl(1-hydroxy-2-methylpropan-2-yl)carbamate]: the IC50 is 1.7 nM in assay [1] and 56 nM in assay [2].

On to `CC(C)NC(=O)O[C@H]1CC[C@@H](c2cc(Nc3ccc4c(c3)CS(=O)(=O)N4CC3CCC3)n[nH]2)C1` (relative stereo) [Example 211, cis-3-(3-((1-(cyclobutylmethyl)-2,2-dioxido-1,3-dihydrobenzo[c]isothiazol-5-yl)amino)-1H-pyrazol-5-yl)cyclopentyl isopropylcarbamate], for which the IC50 in assay [1] is 8.4 nM; in assay [2] it was 197 nM.

On to `CN1Cc2c(ccc(Nc3cc([C@@H]4CC[C@H](OC(=O)NC5COC5)C4)[nH]n3)c2F)S1(=O)=O` (relative stereo) [Example 336, cis-3-(3-((4-fluoro-2-methyl-1,1-dioxido-2,3-dihydrobenzo[d]isothiazol-5-yl)amino)-1H-pyrazol-5-yl)cyclopentyl oxetan-3-ylcarbamate], for which the IC50 in assay [1] was 97 nM; in assay [2], 1470 nM.

For the compound `CC(C)NC(=O)O[C@H]1CC[C@@H](c2cc(Nc3cc4c(cc3F)S(=O)(=O)N(CCO)C4)n[nH]2)C1` (relative stereo) [Example 47, cis-3-(3-((6-fluoro-2-(2-hydroxyethyl)-1,1-dioxido-2,3-dihydrobenzo[d]isothiazol-5-yl)amino)-1H-pyrazol-5-yl)cyclopentyl isopropylcarbamate], the IC50 is 158 nM in assay [1] and 7380 nM in assay [2].

Turning to `CC[C@H](C)NC(=O)O[C@H]1CC[C@@H](c2cc(Nc3ccc4c(c3F)CN(C3CC3)S4(=O)=O)n[nH]2)C1` (single isomer, unassigned) [Example 117a], the IC50 in assay [1] was 2.5 nM; in assay [2], 326 nM.

As to `CC1(NC(=O)O[C@H]2CC[C@@H](c3cc(Nc4ccc5c(c4F)CN(C4CC4)S5(=O)=O)n[nH]3)C2)CCOC1` (relative stereo) [Example 358, cis-3-(3-((2-cyclopropyl-4-fluoro-1,1-dioxido-2,3-dihydrobenzo[d]isothiazol-5-yl)amino)-1H-pyrazol-5-yl)cyclopentyl(3-methyltetrahydrofuran-3-yl)carbamate], the values for the IC50 in assay [1] and in assay [2] were 2.6 nM and 221 nM, respectively.

Consider `COCC(C)(C)NC(=O)O[C@H]1CC[C@@H](c2cc(Nc3ccc4c(c3F)CS(=O)(=O)N4)n[nH]2)C1` (relative stereo) [Example 376, cis-3-(3-((4-fluoro-2,2-dioxido-1,3-dihydrobenzo[c]isothiazol-5-yl)amino)-1H-pyrazol-5-yl)cyclopentyl(1-methoxy-2-methylpropan-2-yl)carbamate], for which the IC50 in assay [1] was 2.1 nM; in assay [2], 31 nM.

As to `CC1(NC(=O)O[C@H]2CC[C@@H](c3cc(Nc4ccc5c(c4Cl)CNS5(=O)=O)n[nH]3)C2)CC1` (single isomer, unassigned) [Example 40b, cis-3-(3-((4-chloro-1,1-dioxido-2,3-dihydrobenzo[d]isothiazol-5-yl)amino)-1H-pyrazol-5-yl)cyclopentyl(1-methylcyclopropyl)carbamate], the IC50 was 3.1 nM in assay [1] and 181 nM in assay [2].

On to `CCCNC(=O)O[C@H]1CC[C@@H](c2cc(Nc3ccc4c(c3F)CN(C)S4(=O)=O)n[nH]2)C1` (single isomer, unassigned) [Example 122b, cis-3-(3-((4-fluoro-2-methyl-1,1-dioxido-2,3-dihydrobenzo[d]isothiazol-5-yl)amino)-1H-pyrazol-5-yl)cyclopentyl propylcarbamate], for which the values for the IC50 in assay [1] and in assay [2] were 8.8 nM and 124 nM, respectively.

In the case of `COCC1(NC(=O)O[C@H]2CC[C@@H](c3cc(Nc4ccc5c(c4F)CNS5(=O)=O)n[nH]3)C2)CC1` (single isomer, unassigned) [Example 158a, cis-3-(3-((4-fluoro-1,1-dioxido-2,3-dihydrobenzo[d]isothiazol-5-yl)amino)-1H-pyrazol-5-yl)cyclopentyl(1-(methoxymethyl)cyclopropyl)carbamate], the IC50 was 5.3 nM in assay [1] and 799 nM in assay [2].

Turning to `CC(C)NC(=O)O[C@H]1CC[C@@H](c2cc(Nc3ccc4c(c3F)CS(=O)(=O)N4C3COC3)n[nH]2)C1` (single isomer, unassigned) [Example 259b, cis-3-(3-((4-fluoro-1-(oxetan-3-yl)-2,2-dioxido-1,3-dihydrobenzo[c]isothiazol-5-yl)amino)-1H-pyrazol-5-yl)cyclopentyl isopropylcarbamate], the IC50 in assay [1] was 3 nM; in assay [2], 157 nM.

For the compound `CC(C)NC(=O)O[C@H]1CC[C@@H](c2cc(Nc3ccc4c(c3F)CN(Cc3ccccc3)S4(=O)=O)n[nH]2)C1` (relative stereo) [Example 75, cis-3-(3-((2-benzyl-4-fluoro-1,1-dioxido-2,3-dihydrobenzo[d]isothiazol-5-yl)amino)-1H-pyrazol-5-yl)cyclopentyl isopropylcarbamate], the IC50 in assay [1] was 16 nM; in assay [2] it was 1080 nM.
